Results on 19 molecules are retold here after patent US9409952B2, “Peptide-compound cyclization method” (Chugai Seiyaku Kabushiki Kaisha, priority 2011, dated 2016).

Data set [1] can be described thus: Metabolic stability in human hepatic microsome. The class given is in vitro ADME. To be noted: microsomes, pH 7.4; human hepatic microsome, NADPH(+); read-out: CL NADPH(+).
Data set [2] is described as follows: PAMPA (parallel artificial membrane permeability assay). The format is in vitro ADME. The note with it: membrane permeation rate (Pe), 50 mM MOPSO buffer pH 6.5 with 5.0% glycocholic acid, 37° C., 18 hours; for Papp at 18 hours, 50 µM: PAMPA, read-out: iPAMPA Pe. An outline of the steps:
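Artificial membrane was 10% (w/v) egg lecithin plus 0.5% (w/v) cholesterol in dodecane on a PVDF filter. A 10 mM DMSO stock was added at 0.5% (v/v) to donor buffer (50 mM MOPSO, pH 6.5, 5.0% glycocholic acid). After 18 h at 37 °C, LC/MS or LC/UV gave donor and acceptor levels for Pe.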

Starred links: 1 amine or outer side, 2 acyl side, 3 side chain; linkers in the order of their positions; H or OH if unused. Positions of bridges follow the written chain, without caps; N, C: chain ends. Non-standard residues stand in square brackets, D forms with d. Residues, ends and D or L forms follow the SMILES beside them. *: point of attachment. NMeF = CN[C@@H](Cc1ccccc1)C(=O)O; NMeGABA = CN(CCCC(=O)[*:2])[*:1]; NMeβAla = CN(CCC(=O)[*:2])[*:1]; NMeL = CN[C@@H](CC(C)C)C(=O)O; NMeV = CN[C@H](C(=O)O)C(C)C; NMeA = CN[C@@H](C)C(=O)O; Piperidide = C1CCN(*)CC1; dNMeA = CN[C@H](C)C(=O)O; Sar = CNCC(=O)O; tBu = CC(C)(C)*

Consider `CC(C)C[C@H]1C(=O)N(C)[C@@H](C)C(=O)N(C)[C@@H](C(C)C)C(=O)N[C@@H](C)C(=O)N[C@H](C(=O)N(C)[C@@H](Cc2ccccc2)C(=O)N(C)[C@@H](Cc2ccccc2)C(=O)N[C@@H](C)C(=O)N2CCCCC2)CC(=O)N(C)[C@H](C)C(=O)N(C)CC(=O)N[C@@H]([C@@H](C)O)C(=O)N(C)[C@@H](C)C(=O)N[C@@H](Cc2ccccc2)C(=O)N1C` [DP-507] ([dNMeA][Sar]T[NMeA]F[NMeL][NMeA][NMeV]AD[NMeF][NMeF]A-Piperidide; lactam N-10), for which, in data set [1], the microsomal CLint at 1 uM amounted to 17 µL/min/mg. Also, the Papp at 18 hours, 50 µM in data set [2] came out at 110 nm/s.
As to `CC[C@H](C)[C@@H]1NC(=O)[C@H](C)N(C)C(=O)[C@H]([C@@H](C)O)NC(=O)CN(C)C(=O)[C@H](C)N(C)C(=O)[C@H](C)NC(=O)[C@H](C)N(C)C(=O)[C@@H](C)N(C)C(=O)C[C@@H](C(=O)N(C)[C@@H](Cc2ccccc2)C(=O)N(C)[C@@H](Cc2ccccc2)C(=O)N[C@@H](C)C(=O)N2CCCCC2)NC(=O)[C@H](Cc2ccccc2)N(C)C1=O` [DP-508] ([dNMeA][NMeA]A[NMeA][Sar]T[NMeA]I[NMeF]D[NMeF][NMeF]A-Piperidide; lactam N-10), the microsomal CLint at 1 uM in data set [1] is 11 µL/min/mg. The Papp at 18 hours, 50 µM in data set [2] is 25 nm/s.
Taken in the same sequence, the figures for `CC(C)[C@@H]1NC(=O)[C@H](C)N(C)C(=O)[C@@H](C)N(C)C(=O)C[C@@H](C(=O)N(C)[C@@H](Cc2ccccc2)C(=O)N(C)[C@@H](Cc2ccccc2)C(=O)N[C@@H](C)C(=O)N2CCCCC2)NC(=O)[C@H](C)N(C)C(=O)[C@H](C)N(C)C(=O)[C@H]([C@@H](C)O)NC(=O)[C@H](C)N(C)C(=O)[C@H](Cc2ccccc2)N(C)C(=O)[C@H](C)N(C)C1=O` [DP-509] ([dNMeA][NMeA]V[NMeA][NMeF][NMeA]T[NMeA][NMeA]D[NMeF][NMeF]A-Piperidide; lactam N-10) were 30 µL/min/mg and 51 nm/s.
Taken in the same sequence, the figures for `CC(C)C[C@H]1C(=O)N[C@@H](C(C)C)C(=O)N(C)[C@@H](C)C(=O)N[C@@H]([C@@H](C)O)C(=O)N(C)[C@@H](C)C(=O)N[C@H](C(=O)N2CCCCC2)CC(=O)N(C)CCC(=O)N(C)[C@@H](C)C(=O)N(C)[C@@H](Cc2ccccc2)C(=O)N[C@@H](C)C(=O)N(C)[C@@H](CC(C)C)C(=O)N(C)CC(=O)N1C` [DP-511] ([NMeβAla][NMeA][NMeF]A[NMeL][Sar][NMeL]V[NMeA]T[NMeA]D-Piperidide; lactam N-12) were 15 µL/min/mg and 11 nm/s.
For `CC[C@H](C)[C@@H]1NC(=O)[C@H](CC(C)C)N(C)C(=O)CN(C)C(=O)[C@H]([C@@H](C)O)NC(=O)[C@@H](C)N(C)C(=O)C[C@@H](C(=O)N2CCCCC2)NC(=O)[C@H](CC(C)C)N(C)C(=O)[C@H](Cc2ccccc2)N(C)C(=O)[C@H](CC(C)C)N(C)C1=O` [DP-512] ([dNMeA]T[Sar][NMeL]I[NMeL][NMeF][NMeL]D-Piperidide; lactam N-9), the microsomal CLint at 1 uM in data set [1] was determined as 62 µL/min/mg. Further, the Papp at 18 hours, 50 µM in data set [2] is 180 nm/s.
Taken in the same sequence, the figures for `CC[C@H](C)[C@@H]1NC(=O)[C@H](Cc2ccccc2)NC(=O)[C@H](CC(C)C)NC(=O)[C@H](CC(C)C)NC(=O)[C@H](C)NC(=O)C[C@@H](C(=O)N2CCCCC2)NC(=O)[C@H](CC(C)C)N(C)C(=O)[C@H](Cc2ccccc2)NC(=O)[C@H](CC(C)C)NC(=O)CNC(=O)[C@H]([C@@H](C)O)NC1=O` [DP-513] (ALLFITGLF[NMeL]D-Piperidide; lactam N-11) were 184 µL/min/mg and 300 nm/s.
Taken in the same sequence, the figures for `CC(C)C[C@@H]1NC(=O)[C@H](C)NC(=O)[C@H]([C@@H](C)O)NC(=O)[C@H](CC(C)C)NC(=O)[C@H](CC(C)C)NC(=O)[C@H](C(C)C)NC(=O)CCN(C)C(=O)C[C@@H](C(=O)N2CCCCC2)NC(=O)[C@H](CC(C)C)NC(=O)[C@H](Cc2ccccc2)NC(=O)[C@H](CC(C)C)NC1=O` [DP-514] ([NMeβAla]VLLTALLFLD-Piperidide; lactam N-11) were 103 µL/min/mg and 68 nm/s.
On to `CC[C@H](C)[C@@H]1NC(=O)[C@H](Cc2ccccc2)NC(=O)[C@H](CC(C)C)NC(=O)[C@@H](C)NC(=O)C[C@@H](C(=O)N2CCCCC2)NC(=O)[C@H](Cc2ccccc2)NC(=O)[C@H](CC(C)C)NC(=O)[C@H]([C@@H](C)O)NC(=O)[C@H](Cc2ccccc2)NC(=O)[C@H](CC(C)C)NC1=O` [DP-515] ([dA]LFILFTLFD-Piperidide; lactam N-10), for which the microsomal CLint at 1 uM in data set [1] was found to be 23 µL/min/mg. Also, the “iPAMPA Pe” value in data set [2] is 1.0E−07.
On to `CC[C@H](C)[C@@H]1NC(=O)[C@H](CC(C)C)N(C)C(=O)[C@H](Cc2ccccc2)N(C)C(=O)CN(C)C(=O)[C@H](C)N(C)C(=O)[C@H](Cc2ccccc2)N(C)C(=O)[C@H](C)N(C)C(=O)[C@H]([C@@H](C)O)NC(=O)[C@H](C(C)C)N(C)C(=O)CCN(C)C(=O)C[C@@H](C(=O)N2CCCCC2)NC1=O` [DP-516] ([NMeβAla][NMeV]T[NMeA][NMeF][NMeA][Sar][NMeF][NMeL]ID-Piperidide; lactam N-11), for which the microsomal CLint at 1 uM in data set [1] was found to be 19 µL/min/mg. The Papp at 18 hours, 50 µM in data set [2] amounted to 91 nm/s.
Taken in the same sequence, the figures for `CC(C)C[C@@H]1NC(=O)[C@H](CC(C)C)N(C)C(=O)[C@H](C)N(C)C(=O)C[C@@H](C(=O)N2CCCCC2)NC(=O)[C@H](CC(C)C)N(C)C(=O)[C@H](Cc2ccccc2)N(C)C(=O)[C@H](C)N(C)C(=O)[C@H]([C@@H](C)O)NC(=O)[C@H](Cc2ccccc2)N(C)C1=O` [DP-520] ([NMeA][NMeL]L[NMeF]T[NMeA][NMeF][NMeL]D-Piperidide; lactam N-9) were 130 µL/min/mg and 290 nm/s.
Taken in the same sequence, the figures for `CC(C)C[C@H]1C(=O)N(C)[C@@H](Cc2ccccc2)C(=O)N[C@H](C(=O)N2CCCCC2)CC(=O)N(C)CC(=O)N[C@@H]([C@@H](C)O)C(=O)N(C)[C@@H](C)C(=O)N[C@@H](COC(C)(C)C)C(=O)N(C)[C@@H](Cc2ccccc2)C(=O)N1C` [DP-521] ([Sar]T[NMeA]S(tBu)[NMeF][NMeL][NMeF]D-Piperidide; lactam N-8) were 125 µL/min/mg and 440 nm/s.
Taken in the same sequence, the figures for `CC(C)C[C@H]1C(=O)NCC(=O)N[C@H](C(=O)N2CCCCC2)CC(=O)N(C)CCC(=O)N[C@@H]([C@@H](C)O)C(=O)N(C)[C@@H](C)C(=O)N[C@@H](COC(C)(C)C)C(=O)N(C)[C@@H](Cc2ccccc2)C(=O)N1C` [DP-522] ([NMeβAla]T[NMeA]S(tBu)[NMeF][NMeL]GD-Piperidide; lactam N-8) were 87 µL/min/mg and 53 nm/s.
As for `CC(C)C[C@H]1C(=O)N[C@@H](COC(C)(C)C)C(=O)N[C@H](C(=O)N2CCCCC2)CC(=O)N(C)[C@@H](C)C(=O)N(C)[C@@H](Cc2ccccc2)C(=O)N(C)[C@@H](CC(C)C)C(=O)N[C@@H]([C@@H](C)O)C(=O)N(C)CC(=O)N1C` [DP-523] ([NMeA][NMeF][NMeL]T[Sar][NMeL]S(tBu)D-Piperidide; lactam N-8), the microsomal CLint at 1 uM in data set [1] turned out to be 99 µL/min/mg. The Papp at 18 hours, 50 µM in data set [2] is 200 nm/s.
Regarding `CC(C)C[C@H]1C(=O)N[C@@H]([C@@H](C)O)C(=O)N(C)[C@@H](C)C(=O)N(C)[C@@H](CC(C)C)C(=O)N(C)[C@@H](Cc2ccccc2)C(=O)N[C@H](C(=O)N2CCCCC2)CC(=O)N(C)CCCC(=O)N(C)[C@@H](C)C(=O)N1C` [DP-524] ([NMeGABA][NMeA][NMeL]T[NMeA][NMeL][NMeF]D-Piperidide; lactam N-8), in data set [1], the microsomal CLint at 1 uM was found to be 162 µL/min/mg. The Papp at 18 hours, 50 µM in data set [2] came out at 160 nm/s.
In the case of `CC(C)C[C@H]1C(=O)N(C)[C@@H](CC(C)C)C(=O)N[C@H](C(=O)N2CCCCC2)CC(=O)N(C)CCCC(=O)N(C)[C@@H](Cc2ccccc2)C(=O)N[C@@H]([C@@H](C)O)C(=O)N(C)CC(=O)N[C@@H](COC(C)(C)C)C(=O)N1C` [DP-525] ([NMeGABA][NMeF]T[Sar]S(tBu)[NMeL][NMeL]D-Piperidide; lactam N-8), the microsomal CLint at 1 uM in data set [1] was found to be 86 µL/min/mg. In data set [2], the Papp at 18 hours, 50 µM came to 220 nm/s.
Taken in the same sequence, the figures for `CC(C)C[C@H]1C(=O)N(C)[C@@H](Cc2ccccc2)C(=O)N[C@H](C(=O)N2CCCCC2)CC(=O)N[C@H](C(C)C)C(=O)N[C@@H](C)C(=O)N[C@@H]([C@@H](C)O)C(=O)N(C)[C@@H](C)C(=O)N[C@@H](Cc2ccccc2)C(=O)N1C` [DP-526] ([dV]AT[NMeA]F[NMeL][NMeF]D-Piperidide; lactam N-8) were 49 µL/min/mg and 140 nm/s.
Taken in the same sequence, the figures for `CC(C)C[C@H]1C(=O)N[C@H](C(=O)N2CCCCC2)CC(=O)N(C)[C@H](C)C(=O)N(C)[C@@H](Cc2ccccc2)C(=O)N(C)[C@@H](CC(C)C)C(=O)N[C@@H]([C@@H](C)O)C(=O)N(C)CC(=O)N[C@@H](COC(C)(C)C)C(=O)N1C` [DP-527] ([dNMeA][NMeF][NMeL]T[Sar]S(tBu)[NMeL]D-Piperidide; lactam N-8) were 30 µL/min/mg and 110 nm/s.
Taken in the same sequence, the figures for `CC(C)C[C@H]1C(=O)N[C@@H](COC(C)(C)C)C(=O)N[C@H](C(=O)N2CCCCC2)CC(=O)N[C@H](C)C(=O)N(C)[C@@H](Cc2ccccc2)C(=O)N(C)[C@@H](CC(C)C)C(=O)N[C@@H]([C@@H](C)O)C(=O)N(C)CC(=O)N1C` [DP-528] ([dA][NMeF][NMeL]T[Sar][NMeL]S(tBu)D-Piperidide; lactam N-8) were 55 µL/min/mg and 130 nm/s.
Take `CC(C)C[C@H]1C(=O)N[C@@H](COC(C)(C)C)C(=O)N[C@H](C(=O)N2CCCCC2)CC(=O)N[C@H](C)C(=O)N(C)[C@@H](Cc2ccccc2)C(=O)N(C)[C@@H](CC(C)C)C(=O)N[C@@H]([C@@H](C)O)C(=O)N(C)[C@@H](C)C(=O)N1C` [DP-529] ([dA][NMeF][NMeL]T[NMeA][NMeL]S(tBu)D-Piperidide; lactam N-8): the microsomal CLint at 1 uM in data set [1] amounted to 100 µL/min/mg. The Papp at 18 hours, 50 µM in data set [2] is 230 nm/s.
